In paper PMC8044911, “Research on the Interaction Mechanism Between α Mino-Phosphonate Derivative Q-R and Harpin-Binding Protein 1 in Tobacco (Nicotiana tabacum) Plants” (Frontiers in Microbiology, 2021):

Tests used:
[1] = molecular target: T1, HrBP1 (harpin-binding protein 1) (Nicotiana tabacum, UniProt Q5QJB2); experiment: isothermal titration calorimetry; settings: pH 7.5, 25 °C, 20 mM Tris-HCl, 100 mM NaCl
T1 construct: full-length ORF (831 bp, 276 aa) in pET28a NdeI/XhoI, E. coli BL21(DE3), HisTrap purified, tag removal not described; about 30 kDa on SDS-PAGE, oligomer about 180 kDa by SEC

[2] = molecular target: T1, HrBP1 (harpin-binding protein 1); experiment: isothermal titration calorimetry
[3] = molecular target: the molecule itself; experiment: SEC; Superdex 200 10/300 GL, 4°C, 20 mM Tris-HCl, 100 mM NaCl, pH 7.5; mass standards 17-440 kDa; run without and after adding the small molecule Q-R (larger oligomer with Q-R)

With CCOP(=O)(OCC)C(Nc1nc2c(C)cccc2s1)c1ccccc1F (stereo not drawn) [dufulin] the isothermal titration calorimetry [1] was “weak binding occurred between the dufulin and HrBP1 protein”.

Cc1cccc2sc(N[C@@H](c3cccs3)P(=O)(Oc3ccccc3)Oc3ccccc3)nc12 [Q-R, (R)-diphenyl-1-(4-methylbenzothiazole-2-amino)-1-(thiphene-2-yl)-methylphosphonate] showed a Kd [2] of 1190 nM.

B1: harpin-binding protein 1 (HrBP1) from Nicotiana tabacum (natural protein, UniProt Q5QJB2 1-276, looked up)
chain: MASLLQYSTLPLSNNHCSSSLPSLTCHLSKRSNRNTQKLLEKKKYHIKKSLICQSGIDELAFIELPGTKEAKAELIGSLKLKLLSAVSGLNRGLAASEEDLKKADAAAKELESCAGAVDLSADLDKLQGRWKLIYSSAFSGRTLGGSRPGPPTGRLLPITLGQVFQRIDVLSKDFDNIVELELGAPWPLPPAELTATLAHKFELIGSSTIKITFEKTTVKTTGILSQLPPFEVPRIPDQLRPPSNTGSGEFEVTYIDSDTRVTRGDRGELRVFVIS
notes: full-length gene of 831 bp, 276 amino acids, cloned between NdeI and XhoI of pET28a; tryptic peptides matched UniProt Q5QJB2; Removal of the tag is not described; also called HrBP1 recombinant protein; source: E. coli BL21(DE3), pET28a-HrBP1, purified (HisTrap column, desalting column, ultrafiltration)
B1: binds [3].
